Series [1] in a line: Exposure to 80% relative humidity for 1 week (XRD, TGA, KF). Format: physicochemical. The note with it: for crystal structure of resulting sample (XRD): 80% relative humidity for 1 week. On the procedure: (§1) X-ray reflections reported herein were determined by the powder diffraction technique (PXRD). X-ray powder diffraction analysis was performed using a Scintag powder diffractometer with variable goniometer, a Cu source, and a solid state detector. A standard round aluminum sample holder with zero background quartz plate was used. Samples were scanned from 2° to 40° 2θ at 3° per minute. Reflections are reported as peak maxima in the Intensity vs. 2θ plots, and are subject to the normal experimental error (uncertainty) of ±0.2°. Wet samples were promptly analyzed “as is,” i.e., without drying or grinding prior to the analysis.
Thermogravimetric analysis (TGA) was performed using a Mettler TG50 thermobalance. Samples of 7 to 15 milligrams were analyzed at a heating rate of 10° C. per minute in the temperature range between about 25° C. and about 200° C.
The water content (wt-% water) of crystalline forms of gatifloxacin reported herein was determined by the Karl-Fisher method. Water content of solutions was likewise determined by the Karl-Fisher method.
200 mg of gatifloxacin form J were put in 80% relative humidity for 1 week. The resulting sample was analyzed by XRD, TGA and KF.
200 mg of gatifloxacin omega form were put in 80% relative humidity for 1 week, and then analyzed by XRD and by TGA.

The nature of series [2]: Interconversion of crystalline forms by thermal treatment (XRD before and after heating). Type of series: physicochemical. The procedure: as §1
Approximately 200 mg of several of the novel crystalline forms of the present invention, prepared as described in the foregoing examples, and several of the prior-art crystalline forms were subjected to various thermal treatments. The treatments and the results are described in Table II below
200 mg of gatifloxacin form E1 were heated to 100° C. for 1 hour. The XRD of the resulting sample was that of the omega form.

The conditions of series [3]: as reported in U.S. Pat. No. 5,880,283; cited from earlier work.
Series [4] can be described thus: Stability of E1 in formulations. The note with it: in formulations at 30° C. Format: physicochemical. The source says:
The pharmaceutical composition can be in the form of a solid oral dosage form (e.g., compressed tablets or capsules), or it can be in the form of a liquid oral dosage form (e.g., a solution or oral suspension).

The conditions of series [5]: among forms of U.S. Pat. No. 6,413,969, cited from earlier work.
The nature of series [6]: Stability of E1 dihydrate against transformation to sesquihydrate on storage (PXRD). Type of series: physicochemical. The procedure:
A suitable method to determine the presence of gatifloxacin sesquihydrate in gatifloxacin form E1 is x-ray powder diffraction. Determination of presence of sesquihydrate in form E1 is feasible in the region 7° to 9° 2θ, where a peak of sesquihydrate appears at about 7.8° 2θ.
Moreover, the dihydrate of the present invention is stable against transformation to the sesquihydrate when exposed at ambient temperature to 60% relative humidity for one week.
The E1 dihydrate of the present invention is stable against transformation to sesquihydrate when stored at 30° C. and 60% relative humidity for 3 months.

[7] abbreviates: after 80% relative humidity for 1 week.

Data on nine compounds can be found in patent US7423153B2, “Crystalline forms of gatifloxacin” (Teva Pharmaceutical Industries Ltd., priority 2002, dated 2008).

SMILES strings stand for the structures.

As for `COc1c(N2CCNC(C)C2)c(F)cc2c(=O)c(C(=O)O)cn(C3CC3)c12` (stereo not shown) [form J, gatifloxacin], in series [1], the “crystal structure of resulting sample (XRD)” value is “sesquihydrate”. Moreover, in series [1] (setting [7]), the “KF water content of resulting sample” value worked out at 6.6% and the “LOD of resulting sample (TGA)” value stood at 7.8%. The “form Obtained after heating (XRD)” value in series [2] (120° C., 1 h) is reported as “omega”.

Consider `COc1c(N2CCNC(C)C2)c(F)cc2c(=O)c(C(=O)O)cn(C3CC3)c12` (stereo not shown) [T1RP, gatifloxacin], for which the “form Obtained after heating (XRD)” value in series [2] (120° C., 1 h) is reported as “Hemihydrate”.

Consider `COc1c(N2CCNC(C)C2)c(F)cc2c(=O)c(C(=O)O)cn(C3CC3)c12` (stereo not shown) [sesquihydrate, gatifloxacin], for which, in series [3], the hygroscopicity entry was “less hygroscopic” and the stability in manufacturing result is “more stable in manufacturing”. For the same compound, in series [2] (120° C., 1 h), the “form Obtained after heating (XRD)” value is on record as “T2RP + omega”.

Consider `COc1c(N2CCNC(C)C2)c(F)cc2c(=O)c(C(=O)O)cn(C3CC3)c12` (stereo not shown) [omega form, gatifloxacin], for which, in series [1], the “crystal structure of resulting sample (XRD)” value was “sesquihydrate”. For the same compound, in series [1] (setting [7]), the “LOD of resulting sample (TGA)” value is given as 7.7%.

With `COc1c(N2CCNC(C)C2)c(F)cc2c(=O)c(C(=O)O)cn(C3CC3)c12` (stereo not shown) [form E1, gatifloxacin], the “form Obtained after heating (XRD)” value in series [2] (100° C. for 1 hour) is on record as “omega form”. For the same compound, the “time stable in formulations” value in series [4] was “at least 3 months”.

In the case of `COc1c(N2CCNC(C)C2)c(F)cc2c(=O)c(C(=O)O)cn(C3CC3)c12` (stereo not shown) [pentahydrate, gatifloxacin], the thermodynamic stability result in series [5] was “most thermodynamically stable form”. Also, the aqueous solubility result in series [5] (room temperature) was “lowest aqueous solubility”.

In the case of `COc1c(N2CCNC(C)C2)c(F)cc2c(=O)c(C(=O)O)cn(C3CC3)c12` (stereo not shown) [E1 dihydrate, gatifloxacin], the “stability against transformation to the sesquihydrate” value in series [6] (ambient temperature, 60% relative humidity, one week, PXRD) is given as “stable”. For the same compound, the “stability against transformation to sesquihydrate” value in series [6] (stored at 30° C. and 60% relative humidity for 3 months) is on record as “stable”.

For `COc1c(N2CCNC(C)C2)c(F)cc2c(=O)c(C(=O)O)cn(C3CC3)c12` (stereo not shown) [hemihydrate, gatifloxacin], the hygroscopicity result in series [3] is listed as “hygroscopic”. In addition, in series [2] (120° C., 1 h), the “form Obtained after heating (XRD)” value was “T2RP”.

For `COc1c(N2CCNC(C)C2)c(F)cc2c(=O)c(C(=O)O)cn(C3CC3)c12` (stereo not shown) [form G, gatifloxacin], in series [2] (120° C., 1 h), the “form Obtained after heating (XRD)” value is reported as “Omega^1”.
